Here are results for one compound from publication PMC4210147, “Sequence-Specific Dimerization of a Transmembrane Helix in Amphipol A8-35” (PLoS ONE, 2014).

Some results are limits rather than exact numbers.

Data set [1] is described as follows: Far-UV circular dichroism, secondary structure content of GpA TM domain. Format: physicochemical. As to conditions: 25°C; for α-helix content: unlabeled GpA peptide 5 µM, DICHROWEB CDSSTR, reference set 7, at least three averaged scans. The method, then:
CD spectra were recorded on a Jasco J-815 spectropolarimeter at 25°C in a step-scan mode using 0.1-cm path length quartz cells from Hellma (Mülheim, Germany). The concentration of unlabeled GpA peptide was 5 µM. Data points were collected at a resolution of 1 nm, an integration time of 1 s, and a bandwidth of 1 nm. Each shown spectrum results from at least three averaged scans from which buffer scans were subtracted. The measured ellipticity θ was converted to molar ellipticity [θ] by: [drawing 8] (5) where M is the molar mass, L the path length, and C the peptide concentration.
The GpA TM domain was reconstituted in 10 mM phosphate buffer (pH 7.4) containing A8-35 as well as in several solvents containing SDS, DDM, or pure TFE, which are known to stabilize α-helical structures. Prior to CD measurements, samples were treated in the same way as described above for FRET measurements. Secondary structure contents were estimated with the DICHROWEB software, [31] using both soluble and TM proteins as reference datasets (CDSSTR method, reference set 7).
(CD spectra are sensitive to the conformation of chiral molecules.)

The target of data set [2] is T1, human GpA TM domain (Homo sapiens, UniProt P02724).
T1 construct: purchased Peptide Specialty Laboratories, Heidelberg, Germany; host or cells: chemical synthesis (custom peptide)
T1 sequence (P02724 88-120 limits assumed) 1: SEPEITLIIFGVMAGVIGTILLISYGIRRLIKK
T1 sequence (P02724 88-120 limits assumed) 2: T1 sequence (P02724 88-120 limits assumed) 1
The data set is described as follows: Reversibility of SDS-mediated GpA dimer dissociation, FRET after dilution of SDS. Format: binding. Conditions: n = 3. The method, then: (§1) For Förster resonance energy transfer (FRET) measurements, equal concentrations of FL- and TAMRA-labeled GpA TM domains were used. Concentrations of the peptide stock solutions were determined from absorbance measurements on a Perkin Elmer Lambda 35 UV/VIS spectrophotometer. In all experiments, we used 0.25 µM for each of the two labeled GpA peptides. Peptides dissolved in TFE and A8-35 dissolved in ethanol were mixed, and organic solvents were removed under a gentle stream of nitrogen gas. Residual solvent traces were removed by vacuum desiccation overnight. The dried peptide/polymer film was then hydrated in 10 mM HEPES buffer (pH 7.4) containing 150 mM NaCl.
After at least 2 h of incubation at 37°C and 10 min of centrifugation at 16,000 g, steady-state fluorescence measurements were performed with the supernatant at 25°C on a Horiba Fluoromax 4 system with both excitation and emission slits at 3 nm. The excitation wavelength was set at 439 nm, and emission spectra were recorded from 480 to 650 nm. For FRET measurements with SDS, several concentrations of SDS, both below and above the CMC determined for the given buffer conditions, were used, and hydrated samples were incubated overnight. […]

In data set [3] the target is T1, human GpA TM domain. The data set is described as follows: Steady-state FRET, GpA TM helix dimerization in A8-35. Format: binding. As to conditions: n = 3; for dimer fraction (in words): pH 7.4, 25°C.
From the text: Peptides corresponding to residues 69–101 of the human GpA TM domain ([…]) were custom-synthesized and labeled at the N-terminus with either the donor or the acceptor dyes fluorescein (FL) and 5-6-carboxyrhodamine (TAMRA), respectively (Peptide Specialty Laboratories, Heidelberg, Germany). The purity of the labelled peptides was confirmed by high-performance liquid chromatography (HPLC) and mass spectrometry. Based on this, the labeled peptides used in this study were>95% pure. Peptides were dissolved in 2,2,2-trifluoroethanol purchased from Sigma-Aldrich (Munich, Germany). APol A8-35 was purchased from Affymetrix (Santa Clara, USA) and sodium dodecyl sulfate (SDS) from Roth (Karlsruhe, Germany). N-dodecyl-β-D-maltopyranoside (DDM) was obtained from Sigma-Aldrich (Munich, Germany).
as §1
After at least 2 h of incubation at 37°C and 10 min of centrifugation at 16,000 g, steady-state fluorescence measurements were performed with the supernatant at 25°C on a Horiba Fluoromax 4 system with both excitation and emission slits at 3 nm. The excitation wavelength was set at 439 nm, and emission spectra were recorded from 480 to 650 nm. For FRET measurements with SDS, several concentrations of SDS, both below and above the CMC determined for the given buffer conditions, were used, and hydrated samples were incubated overnight.
Energy transfer E was calculated using the donor fluorescence intensities at 525 nm in presence and absence of acceptor according to [drawing 1] (1)
FD is the fluorescence intensity of the donor sample, and FDA is the fluorescence intensity of the sample containing donor and acceptor GpA TM domains at equal concentrations. The energy transfer of sequence-specific TM helix dimerization, ED, can be expressed as: [drawing 2] (2) where f D is the fraction of dimeric TM helices, P D is the probability of donor quenching when the peptides form a dimer, and E R is the energy transfer in the dimer.
The probability P D of donor quenching depends on the molar ratio of the acceptor peptides [drawing 3] , where [a] and [d] are the concentrations of acceptor and donor peptides, respectively. If the distance of the fluorophores in the dimer is much smaller than the Förster radius, as is the case here, ER can be taken as unity.
The fraction of dimers can be written as [drawing 4] , where [D] is the concentration of dimeric peptides and [T] the total peptide concentration.
The dissociation constant, K D, is given by [drawing 6] (4) where the monomer concentration is [drawing 7] .

Another data set relates to GpA TM dimer. As to conditions: SDS, DDMAB, DPC, lyso-PC, ref [26]-[28], cited from earlier work.

As for `CC[C@H](C)[C@H](NC(=O)CNC(=O)[C@H](Cc1ccc(O)cc1)NC(=O)[C@H](CO)NC(=O)[C@@H](NC(=O)[C@H](CC(C)C)NC(=O)[C@H](CC(C)C)NC(=O)[C@@H](NC(=O)[C@@H](NC(=O)CNC(=O)[C@@H](NC(=O)[C@@H](NC(=O)CNC(=O)[C@H](C)NC(=O)[C@H](CCSC)NC(=O)[C@@H](NC(=O)CNC(=O)[C@H](Cc1ccccc1)NC(=O)[C@@H](NC(=O)[C@@H](NC(=O)[C@H](CC(C)C)NC(=O)[C@@H](NC(=O)[C@@H](NC(=O)[C@H](CCC(=O)O)NC(=O)[C@@H]1CCCN1C(=O)[C@H](CCC(=O)O)NC(=O)[C@@H](N)CO)[C@@H](C)CC)[C@@H](C)O)[C@@H](C)CC)[C@@H](C)CC)C(C)C)C(C)C)[C@@H](C)CC)[C@@H](C)O)[C@@H](C)CC)[C@@H](C)CC)C(=O)N[C@@H](CCCNC(=N)N)C(=O)N[C@@H](CCCNC(=N)N)C(=O)N[C@@H](CC(C)C)C(=O)N[C@H](C(=O)N[C@@H](CCCCN)C(=O)N[C@@H](CCCCN)C(=O)O)[C@@H](C)CC` [GpA TM domain], the α-helix content in data set [1] (5 µM A8-35, 10 mM phosphate buffer pH 7.4) stood at 67%; in data set [1] (in 5 mM DDM) it was 79%; in data set [1] (in 5 mM SDS) it was 76%; in data set [1] (in TFE (pure)), 62%. For the same compound, the “effect of higher APol concentrations on peptide's secondary structure” value in data set [1] (A8-35 concentrations above 5 µM, CD, 5 µM peptide) is given as “did not significantly affect the peptide's secondary structure”. The “reversibility of dissociation and association of GpA TM helix” value at human GpA TM domain [2] (2 mM SDS diluted to 0.4 mM SDS, constant 20 µM A8-35 and peptide) is given as “fully reversible”. Moreover, at human GpA TM domain [2] (2 mM SDS sample diluted to 0.4 mM SDS, 20 µM A8-35), the “fraction dimer after dilution from higher SDS concentration” value is “comparable to that observed at 0.4 mM SDS”. Moreover, the dimer fraction result at human GpA TM domain [3] (25 µM A8-35, FL- and TAMRA-labeled GpA 0.25 µM each, 10 mM HEPES pH 7.4, 150 mM NaCl, incubated at least 2 h at 37°C, measured at 25°C) is “about 0.65”. Also, the “GpA dimer dissociation at relatively higher A8-35 concentrations” value on human GpA TM domain [3] (A8-35 range 5 to 75 µM, in contrast to detergents) is reported as “do not seem to fully dissociate the GpA dimer”. Also, the “dimer fraction (in words)” value on human GpA TM domain [3] (above 25 µM A8-35 (to 75 µM), FL- and TAMRA-labeled GpA 0.25 µM each) is “decreased only faintly with increasing polymer concentrations”; at human GpA TM domain [3] (low A8-35 concentrations (range 5 to 75 µM), FL- and TAMRA-labeled GpA 0.25 µM each) it was “Almost all peptides were dimeric”. The Kd at human GpA TM domain [3] (tested A8-35 range 5 to 75 µM, total labeled peptide 0.5 µM, 10 mM HEPES pH 7.4, 150 mM NaCl, 25°C, read-out: apparent dissociation constant K_D of GpA TM dimer) was below 300 nM; on GpA TM dimer (read-out: dissociation constants of the GpA TM dimer in detergents, low detergent concentrations), at most 500 nM. Besides, in the data set with GpA TM dimer (compared to A8-35), the “dissociation constants of the GpA TM dimer upon further addition of detergent” value is listed as “increase significantly”.
